# Target: PAD4 (Homo sapiens, UniProt Q9UM07)
# Experiment: PAD4 Inhibition Assay (citrulline formation from BAEE)
# Assay type: biochemical
# Conditions: PAD4 75 nM, 60-minute preincubation at 37° C., substrate BAEE, 90 minutes
# Procedure: PAD4 was diluted to 75 nM in Assay Buffer (50 mM Tris-HCl, 2 mM CaCl2, 2 mM DTT, 1 mM PMSF in H2O) and added to wells with various concentrations of compound or DMSO vehicle in Eppendorf tubes (final volume was 100 μL). Following a 60-minute preincubation at 37° C., the reaction was initiated by the addition of 10 μL substrate (22 mM BAEE in H2O) at 37° C. The reaction was stopped after 90 minutes by the addition of 25 μL HClO4 (5 M), 125 μL Reagent A (10 g/L diacetyl monoxime and 15 g/L NaCl in H2O) and 250 μL Reagent B (10 mg/mL antipyrine and 1.5 mg/mL FeCl3 diluted in detection buffer containing 25% H2SO4, 25% H3PO4 and 50% H2O) in sequence. This assay was quenched in an ice-bath for 5 minutes after boiling for 30 minutes. The citrulline formation was measured in […] (λ=465 nm) on microplate reader and the IC50 was calculated by GraphPad Prism 5.
# PAD4, sequence (Q9UM07 whole entry): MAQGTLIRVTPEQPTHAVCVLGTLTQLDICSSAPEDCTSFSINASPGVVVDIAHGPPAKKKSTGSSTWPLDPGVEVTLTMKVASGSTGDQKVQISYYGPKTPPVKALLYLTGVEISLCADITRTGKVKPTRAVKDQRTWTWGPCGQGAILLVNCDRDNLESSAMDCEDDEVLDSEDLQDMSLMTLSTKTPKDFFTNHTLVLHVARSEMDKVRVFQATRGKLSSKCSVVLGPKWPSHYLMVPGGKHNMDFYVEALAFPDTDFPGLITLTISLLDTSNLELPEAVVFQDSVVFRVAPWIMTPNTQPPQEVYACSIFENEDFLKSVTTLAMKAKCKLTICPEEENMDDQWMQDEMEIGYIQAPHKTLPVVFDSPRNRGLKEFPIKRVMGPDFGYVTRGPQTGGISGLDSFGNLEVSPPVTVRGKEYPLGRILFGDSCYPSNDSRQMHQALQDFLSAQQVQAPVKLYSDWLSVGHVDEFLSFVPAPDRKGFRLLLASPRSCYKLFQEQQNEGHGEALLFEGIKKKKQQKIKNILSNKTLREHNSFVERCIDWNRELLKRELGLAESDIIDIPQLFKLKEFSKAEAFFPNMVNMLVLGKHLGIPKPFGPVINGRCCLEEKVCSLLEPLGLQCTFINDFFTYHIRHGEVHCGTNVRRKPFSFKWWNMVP
row,SMILES,IC50
1,"COc1c(C(=O)N[C@@H](CCCNC(=N)CF)C(=O)NCc2ccccc2)ccc2cc(N(C)C)ccc12 [EX-23, (S)-N-(1-(Benzylamino)-5-(2-fluoroacetimidamido)-1-oxopentan-2-yl)-6-(dimethylamino)-1-methoxy-2-naphthamide]",< 500 nM
2,"COc1ccc(-c2ccccc2)cc1C(=O)N[C@@H](CCCNC(=N)CF)C(=O)NCc1ccccc1 [EX-7, (S)-N-(1-(Benzylamino)-5-(2-fluoroacetimidamido)-1-oxopentan-2-yl)-4-methoxy-[1,1′-biphenyl]-3-carboxamide]",< 500 nM
3,"COc1cc2c(OC)cccc2cc1C(=O)N[C@@H](CCCNC(=N)CF)C(=O)NCc1ccc(Cl)cc1 [EX-19, (S)-N-(1-((4-Chlorobenzyl)amino)-5-(2-fluoroacetimidamido)-1-oxopentan-2-yl)-3,5-dimethoxy-2-naphthamide]",< 500 nM
4,COc1cc2c(OC)cccc2cc1C(=O)N[C@@H](CCCNC(=N)CF)C(=O)NCc1cccc(NC(=O)CCCNC(=O)CCCC[C@@H]2SC[C@@H]3NC(=O)N[C@@H]32)c1 [EX-24],< 500 nM
5,"COc1cccc(OC)c1C(=O)N[C@@H](CCCNC(=N)CF)C(=O)NCc1ccc(Cl)cc1 [EX-3, (S)-N-(1-((4-Chlorobenzyl)amino)-5-(2-fluoroacetimidamido)-1-oxopentan-2-yl)-2,6-dimethoxybenzamide]",< 500 nM
6,"COc1ccccc1CNC(=O)[C@H](CCCNC(=N)CF)NC(=O)c1cc(-c2ccccc2)ccc1OC [EX-13, (S)-N-(5-(2-Fluoroacetimidamido)-1-((2-methoxybenzyl)amino)-1-oxopentan-2-yl)-4-methoxy-[1,1′-biphenyl]-3-carboxamide]",< 500 nM
7,"COc1ccc(-c2ccccc2)cc1C(=O)N[C@@H](CCCNC(=N)CF)C(=O)NCc1cccc(C)c1 [EX-8, (S)-N-(5-(2-Fluoroacetimidamido)-1-((3-methylbenzyl)amino)-1-oxopentan-2-yl)-4-methoxy-[1,1′-biphenyl]-3-carboxamide]",500 to 10000 nM
8,"COc1ccc(-c2cccc(C)c2)cc1C(=O)N[C@@H](CCCNC(=N)CF)C(=O)NCc1ccccc1 [EX-12, (S)-N-(1-(Benzylamino)-5-(2-fluoroacetimidamido)-1-oxopentan-2-yl)-4-methoxy-3′-methyl-[1,1′-biphenyl]-3-carboxamide]",< 500 nM
9,"COc1cc2ccccc2cc1C(=O)N[C@@H](CCCNC(=N)CF)C(=O)NCc1ccccc1 [EX-2, (S)-N-(1-(Benzylamino)-5-(2-fluoroacetimidamido)-1-oxopentan-2-yl)-3-methoxy-2-naphthamide]",< 500 nM
10,"COc1cc2c(OC)cccc2cc1C(=O)N[C@@H](CCCNC(=N)CF)C(=O)NCc1cccc(Cl)c1 [EX-20, (S)-N-(1-((3-Chlorobenzyl)amino)-5-(2-fluoroacetimidamido)-1-oxopentan-2-yl)-3,5-dimethoxy-2-naphthamide]",< 500 nM
11,"COc1cc2c(OC)cccc2cc1C(=O)N[C@@H](CCCNC(=N)CF)C(=O)NCc1cccc(F)c1 [EX-21, (S)-N-(5-(2-Fluoroacetimidamido)-1-((3-fluorobenzyl)amino)-1-oxopentan-2-yl)-3,5-dimethoxy-2-naphthamide]",< 500 nM
12,"COc1cc2c(OC)cccc2cc1C(=O)N[C@@H](CCCNC(=N)CF)C(=O)NCc1ccccc1 [EX-1, (S)-N-(1-(benzylamino)-5-(2-fluoroacetimidamido)-1-oxopentan-2-yl)-3,5-dimethoxy-2-naphthamide]",< 500 nM
13,"COc1cc2c(OC)cccc2cc1C(=O)N[C@@H](CCCNC(=N)CF)C(=O)NCc1ccc(F)cc1 [EX-22, (S)-N-(5-(2-Fluoroacetimidamido)-1-((4-fluorobenzyl)amino)-1-oxopentan-2-yl)-3,5-dimethoxy-2-naphthamide]",< 500 nM

# Next, values leading:
row,IC50,SMILES
1,< 500 nM,"COc1ccc(Cl)cc1C(=O)N[C@@H](CCCNC(=N)CF)C(=O)NCc1cccc(Cl)c1 [EX-14, (S)-5-Chloro-N-(1-((3-chlorobenzyl)amino)-5-(2-fluoroacetimidamido)-1-oxopentan-2-yl)-2-methoxybenzamide]"
2,500 to 10000 nM,"COc1cccc(Cl)c1C(=O)N[C@@H](CCCNC(=N)CF)C(=O)NCc1ccc(Cl)cc1 [EX-4, (S)-2-Chloro-N-(1-((4-chlorobenzyl)amino)-5-(2-fluoroacetimidamido)-1-oxopentan-2-yl)-6-methoxybenzamide]"
3,< 500 nM,"COc1ccc(CNC(=O)[C@H](CCCNC(=N)CF)NC(=O)c2cc(Cl)ccc2OC)cc1 [EX-17, (S)-5-Chloro-N-(5-(2-fluoroacetimidamido)-1-((4-methoxybenzyl)amino)-1-oxopentan-2-yl)-2-methoxybenzamide]"
4,500 to 10000 nM,"COc1ccccc1C(=O)N[C@@H](CCCNC(=N)CF)C(=O)NCc1ccc(Cl)cc1 [EX-5, (S)-N-(1-((4-Chlorobenzyl)amino)-5-(2-fluoroacetimidamido)-1-oxopentan-2-yl)-2-methoxybenzamide]"
5,< 500 nM,"COc1ccc(-c2ccccc2)cc1C(=O)N[C@@H](CCCNC(=N)CF)C(=O)NCc1ccccn1 [EX-10, (S)-N-(5-(2-Fluoroacetimidamido)-1-oxo-1-((pyridin-2-ylmethyl)amino)pentan-2-yl)-4-methoxy-[1,1′-biphenyl]-3-carboxamide]"
6,< 500 nM,"COc1ccc(Cl)cc1C(=O)N[C@@H](CCCNC(=N)CF)C(=O)NCc1ccc(Cl)cc1 [EX-6, (S)-5-Chloro-N-(1-((4-chlorobenzyl)amino)-5-(2-fluoroacetimidamido)-1-oxopentan-2-yl)-2-methoxybenzamide]"
7,< 500 nM,"COc1ccc(Cl)cc1C(=O)N[C@@H](CCCNC(=N)CF)C(=O)NCc1ccc(C)cc1 [EX-16, (S)-5-Chloro-N-(5-(2-fluoroacetimidamido)-1-((4-methylbenzyl)amino)-1-oxopentan-2-yl)-2-methoxybenzamide]"
8,< 500 nM,"COc1ccc(Cl)cc1C(=O)N[C@@H](CCCNC(=N)CF)C(=O)NCc1ccccc1Cl [EX-15, (S)-5-Chloro-N-(1-((2-chlorobenzyl)amino)-5-(2-fluoroacetimidamido)-1-oxopentan-2-yl)-2-methoxybenzamide]"
9,< 500 nM,"COc1ccc(Cl)cc1C(=O)N[C@@H](CCCNC(=N)CF)C(=O)NCc1ccccn1 [EX-18, (S)-5-Chloro-N-(5-(2-fluoroacetimidamido)-1-oxo-1-((pyridin-2-ylmethyl)amino)pentan-2-yl)-2-methoxybenzamide]"
10,500 to 10000 nM,"COc1ccc(-c2cccc(Cl)c2)cc1C(=O)N[C@@H](CCCNC(=N)CF)C(=O)NCc1ccccc1 [EX-11, (S)-N-(1-(Benzylamino)-5-(2-fluoroacetimidamido)-1-oxopentan-2-yl)-3′-chloro-4-methoxy-[1,1′-biphenyl]-3-carboxamide]"
11,500 to 10000 nM,"COc1ccc(-c2ccccc2)cc1C(=O)N[C@@H](CCCNC(=N)CF)C(=O)NCc1cccc(Cl)c1 [EX-9, (S)-N-(1-((3-Chlorobenzyl)amino)-5-(2-fluoroacetimidamido)-1-oxopentan-2-yl)-4-methoxy-[1,1′-biphenyl]-3-carboxamide]"
